# Measured values: PMC5518105, “Identification and characterization of the antiplasmodial activity of Hsp90 inhibitors” (Malaria Journal, 2017)
# pIC50, pKd: −log10 of the molar value. Entries after “also recorded” stand apart in the source; their conditions may differ. Where two headings read alike, the source gives them in different places.
# Columns and labels:
# P. falciparum W2 [1] = test: Recrudescence assay, W2; format: cell-based, Plasmodium falciparum
# Method: (§1) The assay is a modification of the previously reported bulk recrudescence assay. […] […] After drug exposure, the medium containing the drug was removed and the cultures were washed twice with compound-free media, and resuspended in RPMI to adjust haematocrit to 5%. The medium was changed every day and red blood cells were added every 2 days to adjust the haematocrit. The cultures were monitored daily until they reached 10% parasitaemia, which represented the end point of the experiment. Culture parasitaemia was determined by scoring >2000 erythrocytes in Giemsa-stained thin blood films as parasitized or not. The median number of days to reach this level of parasitaemia was reported for all the experiments. All experiments were conducted in triplicate; each replica was conducted on different days. The differences in the recovery times between control cultures to those exposed to Hsp90 inhibitors were analysed using the non-parametric statistic Kruskal–Wallis test. If the overall test was significant then Dunn’s multiple comparison tests were used to identify significant differences among pair comparisons. The same statistical analysis was applied when comparing P. falciparum cultures exposed to DHA alone versus DHA in combination with Hsp90 inhibitors. […] The statistical analyses were performed with the software Prism v6 (GraphPad Software, San Diego, CA).
# [2] = tested on: P. falciparum chloroquine resistant W2; test: Growth inhibition assay (SYBR Green I), W2; conditions: W2, 72 h; for pIC50: synchronized ring culture
# Method: (§5) A 50% suspension of non-infected O positive erythrocytes was added every 2 days to adjust haematocrit to 5%. Parasite cultures were maintained at 37 °C in 5% O2 and 5% CO2 atmosphere with daily changes of culture media.
# (§6) A synchronized P. falciparum culture, with over 80% ring forms, was used in the growth inhibition assay. […] A 190 μL aliquot of parasite culture was dispensed per well to microplates that were pre-dispensed with the compounds at various dilutions. […] Dilutions of Hsp90 inhibitors and DHA were prepared in water with a final concentration of DMSO below 0.05% (v/v).
# (§7) The microplates were incubated at 37 °C in a controlled atmosphere (5% O2, 5% CO2 Nitrogen balanced) for 72 h. After incubation, the plates were subject to a freeze–thaw cycle (−80 °C) and the parasite growth was quantified by the SYBR Green I method as previously described [33]. Briefly, 100 µL of homogenized parasite culture was transferred into 96-well black plates. […] The plates were incubated at room temperature in darkness for 1 h.
# (§8) Growth inhibition experiments were conducted at least three times per compound (biological replicates, n ≥ 3). The IC50 differences for each inhibitor between the two P. falciparum strains were compared with a t test.
# P. falciparum 3D7 [3] = test: Parasite stage specific effect, 3D7; format: cell-based, Plasmodium falciparum; conditions: 3D7, 24 h; 17-DMAG 1.2 µM, NVP-AUY922 0.72 µM
# Method: (§2) Synchronized P. falciparum cultures were used to determine the susceptibility of different parasite stages to Hsp90 inhibitors. Three synchronized cultures per strain, with a majority of the parasites in the ring (0–26 h post red blood cell infection), trophozoite (26–38 h) or schizont (38–48 h) stages respectively (Fig. 3). […] The cultures were exposed to one concentration of the Hsp90 inhibitor for 24 h. […] For each three exposed the cultures and the control for both strains 3D7 and W2, the parasitaemia and the developmental stage of the parasites were recorded. Before and after drug exposure, Giemsa-stained blood smears were scored by microscopy examination counting 100 infected erythrocytes per culture, and the proportion of each developmental stage was calculated.
# [4] = mouse, in vivo; cited from earlier work
# human Hsp90α = molecular target: T1, human Hsp90α (Homo sapiens, UniProt P07900); test: Biacore SPR analysis, full-length human Hsp90α; format: binding; conditions: SPR, 25 °C
# T1 construct: Full-length human recombinant HSP90α was purchased; purchased Cayman Chemicals, MI
# Method: (§3) Full-length human recombinant HSP90α was purchased (Cayman Chemicals, MI), while the malaria recombinant parasite proteins were generated according to the following protocol. […] Growth at 37 °C continued until the OD600 reached ~1.0, whereupon the temperature was lowered to 18 °C and protein expression was induced by the addition of 1 mM isopropyl β-D-thiogalactopyranoside (IPTG). Overnight post-induction cells were collected by centrifugation and resuspended in binding buffer [50 mM Hepes pH 7.5, 500 mM NaCl, 1 mM benzamidine, and 1 mM phenylmethanesulfonyl fluoride (PMSF)]. The cells were lysed by adding chemical lysis buffer (2% CHAPS, 0.1 mg/mL lysozyme and 0.5 U/mL benzonase), the lysate was clarified by centrifugation. The supernatant was loaded on to a nickel-nitrilotriacetic acid column pre-equilibrated with binding buffer (50 mM Hepes pH 7.5, 500 mM NaCl). Following a wash step with binding buffer containing 5 mM imidazole, the bound protein was eluted with elution buffer (50 mM Hepes pH 7.5, 500 mM NaCl, 250 mM imidazole). The eluate was then loaded on to a 16/60 Superdex 200 size exclusion column pre-equilibrated with 50 mM Hepes pH 7.5 and 500 mM NaCl. Target protein-containing fractions were pooled and concentrated using centrifugal filter units (Amicon). The final protein products and samples for different steps in the purification procedures were evaluated in SDS-Page gels.
# SPR measurements were performed on Biacore T200 instrument (GE Healthcare) at 25 °C. Purified P. falciparum Hsp90 and PfGRP94 N-terminal domain, and full-length human Hsp90α were immobilized on a CM5 sensorchip using NHS/EDC coupling following the manufacturer protocol to a level of <10,000 RUs, a reference surfaces without immobilized proteins served as a control for nonspecific binding and refractive index changes. […] The running buffer was 10 mM HEPES, pH 7.4, 150 mM NaCl, 0.005% P20, 1% DMSO and 2 mM MgCl2. Buffer alone injections were used as blanks. The sensor surface was regenerated between injections with a short injection of a buffer 10 mM HEPES, pH 7.4, 150 mM NaCl, 0.005% P20 and 3 mM EDTA. The Biacore responses recorded during the 30 s of the injection were used to estimate the association constant (k on) and the 300 s after the injection were used to estimate the dissociation constant (k off). All kinetic constants were estimated using double subtracted sensorgrams using BiaEvaluation Software (GE Healthcare), the kinetic constants were used to calculate the dissociation constant (K d).
# [5] = tested on: Primary normal human lung fibroblasts (NHLFs); test: Drug cytotoxicity assay (MTT); conditions: 24 h
# Method: Primary normal human lung fibroblasts (NHLFs) were seeded on 24-well plates and cultured in FGM-2 media (LONZA, Basel, Switzerland) until they reached 80% confluency. […] Briefly, 50 µL of MTT dye was added into the media and the cells were returned to the incubator for 3 h. Then 500 µL of solubilization solution was added to dissolve the MTT formazan crystals. […] The drug cytotoxicity assay was performed in triplicate.
# P. falciparum Grp94 = P. falciparum Grp94 (Plasmodium falciparum, UniProt Q8I0V4); test: biochemical; format: binding; conditions: SPR, 25 °C
# Method: as §3
# (§4) SPR measurements were performed on Biacore T200 instrument (GE Healthcare) at 25 °C. Purified P. falciparum Hsp90 and PfGRP94 N-terminal domain, and full-length human Hsp90α were immobilized on a CM5 sensorchip using NHS/EDC coupling following the manufacturer protocol to a level of <10,000 RUs, a reference surfaces without immobilized proteins served as a control for nonspecific binding and refractive index changes. Seven different concentrations of the ligands between 0.4 nM and 1 mM, were injected in triplicate over the sensor chip at 30 μL/min in random order. The running buffer was 10 mM HEPES, pH 7.4, 150 mM NaCl, 0.005% P20, 1% DMSO and 2 mM MgCl2. Buffer alone injections were used as blanks. The sensor surface was regenerated between injections with a short injection of a buffer 10 mM HEPES, pH 7.4, 150 mM NaCl, 0.005% P20 and 3 mM EDTA. The Biacore responses recorded during the 30 s of the injection were used to estimate the association constant (k on) and the 300 s after the injection were used to estimate the dissociation constant (k off). All kinetic constants were estimated using double subtracted sensorgrams using BiaEvaluation Software (GE Healthcare), the kinetic constants were used to calculate the dissociation constant (K d).
# P. falciparum Hsp90 = P. falciparum Hsp90 (Plasmodium falciparum, UniProt Q8IC05); test: biochemical; format: binding
# Method: as §3, §4
# [6] = tested on: P. falciparum chloroquine sensitive 3D7; test: Growth inhibition assay (SYBR Green I), 3D7; conditions: 3D7, 72 h; for pIC50: synchronized ring culture
# Method: as §5, §6, §7, §8
# P. falciparum W2 [7] = test: Parasite stage specific effect, W2; format: cell-based, Plasmodium falciparum; conditions: W2, 24 h; 17-DMAG 1.2 µM, NVP-AUY922 0.72 µM
# Method: as §2
# P. falciparum 3D7 [8] = test: Recrudescence assay, 3D7; format: cell-based, Plasmodium falciparum
# Method: as §1
# P. falciparum Grp94, sequence (Q8I0V4 entry or part of it): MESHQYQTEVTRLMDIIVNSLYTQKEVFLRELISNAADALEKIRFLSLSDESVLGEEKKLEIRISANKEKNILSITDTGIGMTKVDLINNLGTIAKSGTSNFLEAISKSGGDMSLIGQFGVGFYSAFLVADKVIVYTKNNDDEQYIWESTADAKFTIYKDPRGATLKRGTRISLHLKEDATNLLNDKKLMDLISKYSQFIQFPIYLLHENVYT
# P. falciparum Hsp90, sequence (Q8IC05 entry or part of it): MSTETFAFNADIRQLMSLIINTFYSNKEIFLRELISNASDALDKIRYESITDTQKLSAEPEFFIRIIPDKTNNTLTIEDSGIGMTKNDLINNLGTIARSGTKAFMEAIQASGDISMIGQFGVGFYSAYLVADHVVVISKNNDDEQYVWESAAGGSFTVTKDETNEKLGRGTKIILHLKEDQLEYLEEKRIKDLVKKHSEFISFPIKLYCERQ
compound,measurement,setting,value
"CO[C@H]1/C=C\C=C(/C)C(=O)NC2=CC(=O)C(NCCN(C)C)=C(C[C@@H](C)C[C@H](OC)[C@H](O)[C@@H](C)/C=C(\C)[C@@H]1OC(N)=O)C2=O [17-DMAG, 17-(dimethylaminoethylamino)-17-demethoxygeldanamycin]",recovery time in combination with DHA vs DHA alone,"P. falciparum W2 [1]; W2, 48 h, two concentrations plus DHA 100 nM",not significantly more toxic to W2
same,delay of culture recovery vs untreated control (cytocidal activity),"P. falciparum W2 [1]; W2, 48 h exposure, 17-AAG 1.5-6 µM, 17-DMAG 0.3-1.2 µM, NVP-AUY922 0.18-0.72 µM",only significantly different from the control parasite cultures when assayed at a concentration ~8 times its average IC50; also recorded: strong cytotoxic activities
same,IC90,[2]; Plasmodium falciparum,542 nM
same,pIC50,[2]; Plasmodium falciparum,6.77
same,pIC50,[2],6.77
same,"effect against all parasite stages (ring, trophozoite, schizont)",P. falciparum 3D7 [3],effective against all parasite stages
same,tolerability,[4],well tolerated without any visible side effects
same,kd,human Hsp90α,0.007 s⁻¹
same,pIC50,"[5]; Homo sapiens, Fibroblast, read-out: IC50 against human cells",< 5.00
same,growth inhibition for the human cells,"[5]; NHLF, 0.5 to 10 µM",≤ 25%
same,growth of host cells compared to no drug controls,"[5]; NHLF, 0.5 to 10 µM, t test",only the highest concentration (10 µM) was significantly different from the controls
same,ka,P. falciparum Grp94,"53,000 1/Ms"
same,kd,P. falciparum Grp94,0.001 s⁻¹
same,pKd,"P. falciparum Grp94; calculated from kinetic constants, read-out: Kd",7.64
same,ka,"P. falciparum Hsp90; SPR, 25 °C","208,000 1/Ms"
same,kd,"P. falciparum Hsp90; SPR, 25 °C",0.001 s⁻¹
same,pKd,"P. falciparum Hsp90; SPR, 25 °C, calculated from kinetic constants, read-out: Kd",8.10
same,pKd,P. falciparum Hsp90; read-out: Kd against the parasite chaperone,8.08
same,pIC50,[6],6.93
same,IC90,[6]; Plasmodium falciparum,287 nM
same,pIC50,[6]; Plasmodium falciparum,6.93
same,"effect against all parasite stages (ring, trophozoite, schizont)",P. falciparum W2 [7],effective against all parasite stages
same,recovery time in combination with DHA vs DHA alone,"P. falciparum 3D7 [8]; 3D7, 48 h, two concentrations plus DHA 100 nM",more effective in combination against P. falciparum 3D7 but only at one of the lowest concentrations
same,delay of culture recovery vs untreated control (cytocidal activity),"P. falciparum 3D7 [8]; 3D7, 48 h exposure, 17-AAG 1.5-6 µM, 17-DMAG 0.3-1.2 µM, NVP-AUY922 0.18-0.72 µM",only significantly different from the control parasite cultures when assayed at a concentration ~8 times its average IC50; also recorded: strong cytotoxic activities
